Test results published in patent US6599713B1, “Method for quantitating leukocyte count in whole blood sample” (priority 1999, dated 2003).

Experiments:
[1] = tested on: white blood cells contained in the whole blood; experiment: Time required for lyzing white blood cells: MPO released from whole blood by surfactant, MPO enzyme immunoassay kit (Example 1); type: cell-based, human; settings: room temperature; for MPO concentration of whole blood: 100 μl of 11% solution per 1 ml healthy human whole blood, mean ± SD of 3
Method: 10 ml of healthy human whole blood was collected in a test tube containing 10 mg of EDTA-2K (manufactured and sold by Dojin Laboratories, Japan) and the resultant EDTA-containing whole blood sample was stirred well, and then 1 ml of the whole blood sample was taken out from the test tube. To the 1 ml whole blood sample taken out from the test tube was added 100 μl of an aqueous 11% solution of Triton™ X-100 (manufactured and sold under the brand of SIGMA™, U.S.A.), and the resultant mixture was stirred well and then allowed to stand at room temperature for 1 minute to obtain a (whole blood sample/surfactant) mixture containing the lyzed white blood cells. Substantially the same operation as mentioned above was repeated except that the standing time at room temperature was changed to 5 minutes, 30 minutes and 60 minutes to thereby lyze the white blood cells contained in the whole blood.
After the above-mentioned period of time, each of the obtained (whole blood sample/surfactant) mixtures containing the lyzed white blood cells was individually diluted 2,000-fold with a sample diluting buffer (20 mM phosphate buffer (pH 7.4) containing 0.1% bovine serum albumin and 0.2% sodium azide), which buffer is attached to BIOXYTEC™ MPO Enzyme Immunoassay kit (manufactured and sold by OXIS International, Inc., U.S.A.), and the resultant diluted mixture was taken as a sample for the measurement of myeloperoxidase (MPO).
With respect to the above-mentioned sample for the measurement of MPO and a standard MPO solution (which is obtained by dissolving commercially available MPO in the above mentioned buffer), the measurement of the MPO concentration was performed using BIOXYTEC™ MPO Enzyme Immunoassay kit (manufactured and sold by OXIS International, Inc., U.S.A.) in accordance with the instruction manual attached thereto.
(§1) Specifically, with respect to the measurement of the MPO concentration of the above-mentioned sample, MPO (manufactured and sold by Elastin Products Co., INC., U.S.A.) was added to the sample so that the final concentration of the added MPO became 5 ng/ml or 10 ng/ml, and the resultant mixture was measured with respect to the MPO concentration. From the obtained value of MPO concentration, a calibration curve for each sample was obtained. The obtained calibration curve was corrected, based on its relationship with a calibration curve obtained with respect to the standard MPO solution, and the corrected calibration curve of each sample was used to determine the MPO concentration of the whole blood. The measurement was conducted 3 times, and a mean value±standard deviation was obtained.

[2] = tested on: white blood cells contained in a whole blood sample; experiment: MPO-releasing effects of various surfactants on whole blood, ELISA (Examples 3 to 5); type: cell-based, human; settings: Example 3 (Table 3): 500 μl blood + 500 μl 1% (w/v) surfactant solution, 60 minutes on ice, mean ± SD of 3
Method: 10 ml of healthy human whole blood was collected using a 28 G winged intravenous injection needle (manufactured and sold by Terumo Corporation, Japan), and immediately mixed with 10 mg of EDTA-2K (manufactured and sold by Dojin Laboratories, Japan), and the resultant EDTA-containing whole blood sample was subjected to the below-described various measurements within 1 hour from the blood collection.
500 μl of the blood was put in a 2-ml Eppendorf tube, and 500 μl of a 1% (w/v) aqueous surfactant solution was added to the tube, and the resultant mixture was stirred for 2 seconds by a Vortex mixer. Subsequently, the mixture was allowed to stand for 60 minutes on ice to thereby lyze the white blood cells. After the lysis of the white blood cells, 100 μl of the mixture was taken out and added to 900 μl of a PBS solution containing dissolved therein 1% BSA (trade name: “Sigma fraction V”, manufactured and sold under the brand of SIGMA™, U.S.A.). The resultant mixture was stirred by a Vortex mixer, and then 10 μl of the mixture was taken out and diluted 2,000-fold with 1% BSA/PBS solution. The resultant diluted mixture was subjected to a measurement by ELISA.
The outline of the ELISA is as follows. A 5 μg/ml PBS solution of an anti-MPO antibody was put into the wells of a Nunc Immuno Plate (manufactured and sold by Nalge Nunc International, Denmark) in an amount of 100 μl per well. The solution in each well was sealed and subjected to a reaction for 18 hours at 4° C. thereby immobilizing the primary antibody. The wells were washed with a washing solution (0.05% Tween™ 20/PBS) and then subjected to blocking for 1 hour at room temperature by using 200 μl of a blocking solution (1% BSA/PBS), and then washed twice with the washing solution. […] The wells were washed 5 times with a washing solution, and 100 μl of a just-prepared TMB solution (manufactured and sold by Kirkegaad & Perry Laboratories, U.S.A.) was added thereto to effect a color reaction. 2 Minutes after the start of the color reaction, 100 μl of a 1 N sulfuric acid solution (manufactured and sold by Nacalai Tesque, Inc., Japan) was added to the wells to thereby terminate the reaction. Then, the absorbance at 450 nm was measured by means of a plate reader (manufactured and sold by Bio-Rad Laboratories, U.S.A.).
as §1, with “With respect to” for “Specifically, with respect to”, “of the sample, MPO” for “of the above-mentioned sample, MPO”, “respect to a standard MPO” for “respect to the standard MPO”

α-[4-(1,1,3,3,-Tetramethylbutyl)phenyl]-ω-hydroxypoly(oxy-1,2-ethanediyl) [Triton ™ X-100]
Time from start of treatment within which MPO is released from the white blood cells to a satisfactory extent ([1]; healthy human whole blood): ≤ 60 min | MPO concentration of whole blood ([1]; treatment time 1 minute): 9.88 ± 0.50 µg/mL | MPO concentration of whole blood ([1]; treatment time 5 minutes): 10.17 ± 0.63 µg/mL | MPO concentration of whole blood ([1]; treatment time 30 minutes): 9.94 ± 0.72 µg/mL | MPO concentration of whole blood ([1]; treatment time 60 minutes): 10.01 ± 0.22 µg/mL | MPO concentration of whole blood [2]: 6.43 ± 1.25 µg/mL
